Target: T1, AMPK-γ1 R299G (RG) complexes (Homo sapiens, UniProt P54619, R299G)
T1 construct: Plasmid encoding full-length human AMPK-γ1; expressed in transfected cells; host or cells: HeLa
Assay: Activation by LKB1 of FLAG-AMPK-γ1 R299G (RG) complexes precipitated from HeLa cells
Type: biochemical
Settings: RG mutant γ1; AMP 200 μM or SU6656 3 μM, 10 min
Excerpt: (B) Effect of ATP concentration on kinase activity of α2-KD in the presence of increasing concentrations of SU6656. Results (mean, n = 2) were fitted to the equation Y= (Vmax × X)/(Km × (1 + I/Ki) + X), where Y is the activity, X is the ATP concentration, I is the concentration of SU6656, and Ki is the inhibitory constant for SU6656. […] (D and E) Effect of increasing concentrations of SU6656 on activity (D) and Thr172 phosphorylation (E) induced by LKB1 with unphosphorylated α2-KD (WT/AT mutant). Results in (D) are mean ± SEM (n = 3); and were fitted to same equation as Figure 4C. […] See also Figure S3. (F) Effect of AMP (2 mM) and SU6656 on inactivation of AMPK by PP2Cα in the presence of 5 mM ATP. […] (G) Effects of AMP or SU6656 on activation (top) and Thr172 phosphorylation (bottom) by LKB1 of AMPK-γ1 complexes expressed in HeLa cells. FLAG-tagged AMPK-γ1, either wild-type (WT) or R299G mutant (RG), was expressed in HeLa cells and AMPK complexes precipitated using anti-FLAG antibody. The complexes (which have low basal phosphorylation due to lack of LKB1 in HeLa cells) were incubated with or without a limiting amount of LKB1, AMP (200 μM) or SU6656 (3 μM) for 10 min and AMPK activity determined. […]

T1 sequence (P54619 whole entry R299G, one chain of several): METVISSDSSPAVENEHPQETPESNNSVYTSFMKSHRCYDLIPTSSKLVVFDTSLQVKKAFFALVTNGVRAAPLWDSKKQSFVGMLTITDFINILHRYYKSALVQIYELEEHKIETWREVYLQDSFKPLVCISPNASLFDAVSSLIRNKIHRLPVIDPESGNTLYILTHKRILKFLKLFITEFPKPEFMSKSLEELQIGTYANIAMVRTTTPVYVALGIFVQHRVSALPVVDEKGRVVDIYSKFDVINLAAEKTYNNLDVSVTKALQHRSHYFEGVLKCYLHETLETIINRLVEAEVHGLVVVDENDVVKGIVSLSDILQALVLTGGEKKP

- activation and Thr172 phosphorylation by LKB1: preserved
SMILES: CN(C)S(=O)(=O)c1ccc2c(c1)/C(=C/c1cc3c([nH]1)CCCC3)C(=O)N2 [SU6656]

— PMC5522529, “Mechanisms of Paradoxical Activation of AMPK by the Kinase Inhibitors SU6656 and Sorafenib” (Cell Chemical Biology, 2017)
